Assay results as given in patent US4749683A, “Inhibition of gastric acid secretion with alpha-transforming growth factor” (President and Fellows of Harvard College, priority 1986, dated 1988).
Values joined by “and” are separate entries in the source; they are usually repeats but may differ in a detail not shown here. Identical values can stand only once.

Test system: guinea pig gastric mucosa
Assay: Histamine-induced gastric acid secretion of isolated guinea pig gastric mucosa in Ussing chambers, pH stat method
Assay type: cell-based, guinea pigs
Conditions: for Ratio of pre- and post histamine treatment acid secretion (mean SEM): relative to 30 minute period prior to histamine
Protocol: Unfasted female guinea pigs (205-330 g) were killed by cervical dislocation and the stomachs were removed. The antrum was discarded and the stomach was rinsed clean with several washes of mammalian Ringer's solution at 37° C. The stomach was hemisected along the greater and lesser curvatures and the mucosa was separated from the seromuscularis with a pair of fine forceps. Mucosae from both sides were stretched and separately mounted in Lucite Ussing chambers (diameter 1.6 cm) and the assembled chambers were connected to water jacketted gas-lift incubators. The nutrient (submucosal) surface was bathed in 15 ml of a solution containing: 122 mM NaCl, 25.0 mM NaHCO3, 5.0 mM KCl, […] MgSO4, 2.0 mM CaCl2, 1.0 mM KH2 PO4, 20.0 mM glucose, and 100 ug/ml gentamycin sulphate (Garamycin). The solution was gassed with 95% O2 -5% CO2 bubbled through distilled water which maintained pH at 7.45-7.55. The luminal (mucosal) surface was bathed in 15 ml unbuffered saline (150 mM NaCl) which was gassed with 100% O2 passed through 500 mM NaOH to remove CO2. Gastric acid secretion was measured by the pH stat method. pH was held at 4.5 with a pH stat coupled to an autoburette and acid secretion was determined by the amount of NaOH necessary to maintain pH in the luminal solution. All solutions were maintained at 37° C. with a heated water circulator. Tissues were initially allowed to stabilize in the chambers a minimum of 2 hours. Saline with or without alpha TGF (60 ng/ml final concentration) was then added to the nutrient bath and the basal rate of acid secretion was monitored for 30 minutes. Twenty-one paired sets of tissue specimens from the same animal were employed, one receiving alpha-TGF, the other serving as control. All tissues were then treated with histamine (10^-4 M) and acid secretion was measured for an additional 3 hours. When calculated in terms of absolute levels of acid secretion, differences between control and TGF-treated tissues were significant (p<0.05) at 120, 150, and 180 minutes.

Substance: alpha-transforming growth factor [TGF]
- Ratio of pre- and post histamine treatment acid secretion (mean SEM) (0 min., alpha TGF 60 ng/ml): 1.00 ± 0.00
- Gastric acid secretion (mean ± SEM) (0 time, basal rate before histamine, alpha TGF 60 ng/ml in nutrient bath, n=21): 1.80 ± 0.21 uEq./cm^2 /hr
- Gastric acid secretion (mean ± SEM) (30 min. after histamine 10^-4 M, alpha TGF 60 ng/ml): 2.09 ± 0.24 uEq./cm^2 /hr
- Ratio of pre- and post histamine treatment acid secretion (mean SEM) (30 min., alpha TGF 60 ng/ml): 1.17 ± 0.04
- Effect on the basal rate of acid secretion (30 minutes before histamine, alpha TGF 60 ng/ml): no effect
- Ratio of pre- and post histamine treatment acid secretion (mean SEM) (60 min. (one hour), alpha TGF 60 ng/ml): 1.48 ± 0.11 and 1.49±0.11
- Gastric acid secretion (mean ± SEM) (60 min. after histamine 10^-4 M, alpha TGF 60 ng/ml): 2.62 ± 0.35 uEq./cm^2 /hr
- Gastric acid secretion (mean ± SEM) (90 min. after histamine 10^-4 M, alpha TGF 60 ng/ml): 2.97 ± 0.38 uEq./cm^2 /hr
- Ratio of pre- and post histamine treatment acid secretion (mean SEM) (90 min., alpha TGF 60 ng/ml): 1.67 ± 0.12
- Ratio of pre- and post histamine treatment acid secretion (mean SEM) (120 min. (two hours), alpha TGF 60 ng/ml): 1.68 ± 0.11
- Gastric acid secretion (mean ± SEM) (120 min. after histamine 10^-4 M, alpha TGF 60 ng/ml): 2.97 ± 0.35 uEq./cm^2 /hr
- Gastric acid secretion (mean ± SEM) (150 min. after histamine 10^-4 M, alpha TGF 60 ng/ml): 3.04 ± 0.37 uEq./cm^2 /hr
- Ratio of pre- and post histamine treatment acid secretion (mean SEM) (150 min., alpha TGF 60 ng/ml): 1.73 ± 0.12
- Ratio of pre- and post histamine treatment acid secretion (mean SEM) (180 min. (three hours), alpha TGF 60 ng/ml): 1.81 ± 0.27
- Gastric acid secretion (mean ± SEM) (180 min. after histamine 10^-4 M, alpha TGF 60 ng/ml): 3.16 ± 0.68 uEq./cm^2 /hr
